Data from patent US20260191998A1, “INDOLE PHTHALOCYANINE COMPOUND, PREPARATION METHOD THEREFOR, AND USE THEREOF IN TUMOR DIAGNOSIS IMAGING” (JIANGSU YAHONG MEDITECH CO., LTD., priority 2022, published 2026).
Structures can show the parent of a compound that is named as a salt.

Assay: UV-VIS absorption spectra (optical property test)
Format: physicochemical
Conditions: 10 μM, DMSO solution; for Absorbance × 10^4: at maximum absorption peak
Experimental: The UV-VIS absorption spectra of the compounds (10 μM, DMSO solution) were detected using Shimadzu UV2600 spectrophotometer, and the maximum absorption peak and absorbance of each compound were obtained.

Molecule	Absorption peak [nm]	Absorbance × 10^4
CCN1/C(=C/C=C2\CCCC(/C=C/C3=[N+](CC)c4ccccc4C3(C)C)=C2NCCCCCC(=O)O)C(C)(C)c2ccccc21 [Example 13, 2-((E)-2-((E)-2-((5-carboxypentyl)amino)-3-(2-((E)-1-ethyl-3,3-dimethylindolin-2-ylidene)ethenyl)cyclohex-1-en-1-yl)ethenyl)-1-ethyl-3,3-dimethyl-3H-indol-1-ium Formate]	632	0.68
CC[N+]1=C(/C=C/C2=C(Cl)C(=C/C=C3/N(CCCCCC(=O)Oc4ccccc4)c4ccccc4C3(C)C)/CCC2)C(C)(C)c2cc(S(C)(=O)=O)ccc21 [Example 40, 2-((E)-2-((E)-2-chloro-3-(2-((E)-3,3-dimethyl-1-(6-oxo-6-phenoxyhexyl)indolin-2-ylidene)ethenyl)cyclohex-1-en-1-yl)ethenyl)-1-ethyl-3,3-dimethyl-5-(methylsulfonyl)-3H-indol-1-ium Chloride]		0.93
CC[N+]1=C(/C=C/C2=C(Oc3ccc(NC(=O)/C=C/CN(C)C)cc3)C(=C/C=C3/N(CCCCCC(=O)Oc4c(C)cccc4C)c4ccccc4C3(C)C)/CCC2)C(C)(C)c2ccccc21.[Cl-] [Example 115]		2.24
Cc1cccc(C)c1OC(=O)CCCCC[N+]1=C(/C=C/C2=C(Cl)C(=C/C=C3/N(CCCCCC(=O)O)c4ccccc4C3(C)C)/CC2)C(C)(C)c2ccccc21 [Example 88, 2-((E)-2-((E)-3-(2-((E)-1-(5-carboxypentyl)-3,3-dimethylindolin-2-ylidene)ethenyl)-2-chlorocyclopent-1-en-1-yl)ethenyl)-1-(6-(2,6-dimethylphenoxy)-6-oxohexyl)-3,3-dimethyl-3H-indol-1-ium Acetate]		1.75
CC[N+]1=C(/C=C/C2=C(Cl)C(=C/C=C3/N(CCCCCC(=O)Oc4ccccc4)c4ccccc4C3(C)C)/C[N+](C)(C)C2)C(C)(C)c2ccccc21 [Example 16, 2-((E)-2-((E)-4-chloro-5-(2-((E)-3,3-dimethyl-1-(6-oxo-6-phenoxyhexyl)indolin-2-ylidene)ethenyl)-1,1-dimethyl-1,2,5,6-tetrahydropyridin-1-ium-3-yl)ethenyl)-1-ethyl-3,3-dimethyl-3H-indol-1-ium Dichloride]	766	1.71
CC1(C)C(/C=C/C2=C(Cl)C(=C/C=C3/N(CCCCCC(=O)Oc4ccccc4)c4ccccc4C3(C)C)/CCC2)=[N+](CCO)c2ccccc21 [Example 48, 2-((E)-2-((E)-2-chloro-3-(2-((E)-3,3-dimethyl-1-(6-oxo-6-phenoxyhexyl)indolin-2-ylidene)ethenyl)cyclohex-1-en-1-yl)ethenyl)-1-(2-hydroxyethyl)-3,3-dimethyl-3H-indol-1-ium Formate]		2.02
C[n+]1cccc2c1N=C(/C=C/C1=C(Cl)C(=C/C=C3/N(CCCCCC(=O)O)c4ccccc4C3(C)C)/CC1)C2(C)C [Example 63, 2-((E)-2-((E)-3-(2-((E)-1-(5-carboxypentyl)-3,3-dimethylindolin-2-ylidene)ethenyl)-2-chlorocyclopent-1-en-1-yl)ethenyl)-3,3,7-trimethyl-3H-pyrrolo[2,3-b]pyridin-7-ium Chloride]		0.31
CC[N+]1=C(/C=C/C2=C(Oc3ccccc3)C(=C/C=C3/N(CCCCCC(=O)Oc4ccccc4)c4ccccc4C3(C)C)/CCC2)C(C)(C)c2ccccc21 [Example 12, 2-((E)-2-((E)-3-(2-((E)-3,3-dimethyl-1-(6-oxo-6-phenoxyhexyl)indolin-2-ylidene)ethenyl)-2-phenoxycyclohex-1-en-1-yl)ethenyl)-1-ethyl-3,3-dimethyl-3H-indol-1-ium Chloride]	781.5	2.07
CCN1/C(=C/C=C2\C[N+](C)(C)CC(/C=C/C3=[N+](CC)c4ccccc4C3(C)C)=C2Sc2ccccc2)C(C)(C)c2ccccc21.Cl [Example 107]	778.5	2.028
CC[N+]1=C(/C=C/C2=C(Cl)C(=C/C=C3/N(CCCCCC(=O)O)c4ccccc4C3(C)C)/CCC2)C(C)(C)c2cc(C(=O)O)ccc21.[Cl-] [Example 92]		1.49
CC[N+]1=C(/C=C/C2=C(Cl)C(=C/C=C3/N(CCOCCC(=O)O)c4ccccc4C3(C)C)/CCC2)C(C)(C)c2cc(C(=O)O)ccc21.[Cl-] [Example 91]		0.46
C[N+]1=C(/C=C/C2=C(Cl)C(=C/C=C3/N(CCOCCOCCC(=O)Oc4ccccc4)c4ccccc4C3(C)C)/CCC2)C(C)(C)c2ccccc21 [Example 51, 2-((E)-2-((E)-2-chloro-3-(2-((E)-3,3-dimethyl-1-(2-(2-(3-oxo-3-phenoxypropoxy)ethoxy)ethyl)indolin-2-ylidene)ethenyl)cyclohex-1-en-1-yl)ethenyl)-1,3,3-trimethyl-3H-indol-1-ium Formate]		1.9
C[n+]1cccc2c1N=C(/C=C/C1=C(Cl)C(=C/C=C3/N(CCCCCC(=O)O)c4ccccc4C3(C)C)/CCC1)C2(C)C [Example 64, 2-((E)-2-((E)-3-(2-((E)-1-(5-carboxypentyl)-3,3-dimethylindolin-2-ylidene)ethenyl)-2-chlorocyclohex-1-en-1-yl)ethenyl)-3,3,7-trimethyl-3H-pyrrolo[2,3-b]pyridin-7-ium Chloride]		0.5
COc1ccc2c(c1)C(C)(C)C(/C=C/C1=C(Cl)C(=C/C=C3/N(CCCCCC(=O)Oc4ccccc4)c4ccc(OC)cc4C3(C)C)/CCC1)=[N+]2C [Example 47, 2-((E)-2-((E)-2-chloro-3-(2-((E)-5-methoxy-3,3-dimethyl-1-(6-oxo-6-phenoxyhexyl)indolin-2-ylidene)ethenyl)cyclohex-1-en-1-yl)ethenyl)-5-methoxy-1,3,3-trimethyl-3H-indol-1-ium]		2
CCN1/C(=C/C=C2\C[N+](C)(C)CC(/C=C/C3=[N+](CC)c4ccccc4C3(C)C)=C2Cl)C(C)(C)c2ccccc21 [Example 18, 2-((E)-2-((E)-4-chloro-5-(2-((E)-1-ethyl-3,3-dimethylindolin-2-ylidene)ethenyl)-1,1-dimethyl-1,2,5,6-tetrahydropyridin-1-ium-3-yl)ethenyl)-1-ethyl-3,3-dimethyl-3H-indol-1-ium Ditrifluoroacetate]	764.5	2.12
CC[N+]1=C(/C=C/C2=C(Cl)C(=C/C=C3/N(CCOCCC(=O)Oc4ccccc4)c4ccccc4C3(C)C)/CCC2)C(C)(C)c2cc(C(=O)O)ccc21 [Example 117, 5-carboxy-2-((E)-2-((E)-2-chloro-3-(2-((E)-3,3-dimethyl-1-(2-(3-oxo-3-phenoxypropoxy)ethyl)indolin-2-ylidene)ethenyl)cyclohex-1-en-1-yl)ethenyl)-1-ethyl-3,3-dimethyl-3H-indol-1-ium 2,2,2-trifluoroacetate]		1.36
CN1C(=O)/C(=C\C2=C(Cl)C(=C/C=C3/N(CCCCC(=O)Oc4ccccc4)c4ccccc4C3(C)C)/C[N+](C)(C)C2)c2ccccc21 [Example 38]	584	0.364
CC[N+]1=C(/C=C/C2=C(Oc3ccc(S(=O)(=O)O)cc3)C(=C/C=C3/N(CCCCCC(=O)Oc4ccccc4)c4ccccc4C3(C)C)/CCC2)C(C)(C)c2ccccc21 [Example 20, 2-((E)-2-((E)-3-(2-((E)-3,3-dimethyl-1-(6-oxo-6-phenoxyhexyl)indol-2-methylene)ethenyl)-2-(4-sulfophenoxy)cyclohex-1-en-1-yl)ethenyl)-1-ethyl-3,3-dimethyl-3H-indol-1-ium Formate]	782	2.60
CC[N+]1=C(/C=C/C2=C(Cl)C(=C/C=C3/N(CCOCCCCCC(=O)Oc4ccccc4)c4ccccc4C3(C)C)/CCC2)C(C)(C)c2ccccc21 [Example 35, 2-((E)-2-((E)-2-chloro-3-(2-((E)-3,3-dimethyl-1-(2-((6-oxo-6-phenoxyhexyl)oxy)ethyl)indolin-2-ylidene)ethenyl)cyclohex-1-en-1-yl)ethenyl)-1-ethyl-3,3-dimethyl-3H-indol-1-ium 2,2,2-trifluoroacetate]	794.5	2.21
CC1(C)C(/C=C/C2=C(Cl)C(=C/C=C3/N(CCCCCC(=O)Oc4ccccc4)c4ccccc4C3(C)C)/CCC2)=[N+](CCCCCC(=O)Oc2ccccc2)c2ccccc21 [Example 5, 2-((E)-2-((E)-2-chloro-3-(2-((E)-3,3-dimethyl-1-(6-oxo-6-phenoxyhexyl)indolin-2-ylidene)ethenyl)cyclohex-1-en-1-yl)ethenyl)-3,3-dimethyl-1-(6-oxo-6-phenoxyhexyl)-3H-indol-1-ium Chloride]	796.5	1.17
5-carboxy-2-((E)-2-((E)-2-chloro-3-(2-((E)-3,3-dimethyl-1-(2-(3-oxo-3-phenoxypropoxy)ethyl)indolin-2-ylidene)ethenyl)cyclohex-1-en-1-yl)ethenyl)-1-ethyl-3,3-dimethyl-3H-indol-1-ium 2,2,2-trifluoroacetate [Example 123]		1.3
CC[N+]1=C(/C=C/C2=C(Cl)C(=C/C=C3/N(CCCCCC(=O)NCCCCCNC(=O)CCCCCN4/C(=C/C=C5\CCCC(/C=C/C6=[N+](CC)c7ccccc7C6(C)C)=C5Cl)C(C)(C)c5ccccc54)c4ccccc4C3(C)C)/CCC2)C(C)(C)c2ccccc21 [Example 77, 2,2′-((1E,1′E)-((3E,3′E)-(((2E,2′E)-((pentane-1,5-diylbis(azanediyl))bis(6-oxohexane-6,1-diyl))bis(3,3-dimethylindolin-1-yl-2-ylidene))bis(ethane-2,1-diylidene))bis(2-chlorocyclohex-1-en-1-yl-3-ylidene))bis(ethene-2,1-diyl))bis(1-ethyl-3,3-dimethyl-3H-indol-1-ium) Chloride]	794.5	4.344
CC[N+]1=C(/C=C/C2=C(Cl)C(=C/C=C3/N(CCOCCC(=O)Oc4ccccc4)c4ccccc4C3(C)C)/CC2)C(C)(C)c2ccccc21 [Example 21, 2-((E)-2-((E)-2-chloro-3-(2-((E)-3,3-dimethyl-1-(2-(3-oxo-3-phenoxypropoxy)ethyl)indol-2-methylene)ethylidene)cyclopent-1-en-1-yl)ethenyl)-1-ethyl-3,3-dimethyl-3H-indol-1-ium Trifluoroacetate]	821	2.466
